Values belong to the molecule of their own block, whether it stands above or below them. Non-standard residues stand in square brackets, D forms with d. Residues, ends and D or L forms follow the SMILES beside them. No end group written: not given here. *: point of attachment. F1 = 5-carboxytetramethylrhodamine (donor fluorophore); code B = not defined here; code J = not defined here; Nle = CCCC[C@H](N)C(=O)O; Cbz = O=C(OCc1ccccc1)*; F^2 = not defined here; CH2F = FC*
What was measured:
intracellular caspases = assay: Effect of ZVAD(OMe)FMK on in situ caspase activation in dexamethasone-treated thymocytes, flow cytometry at 6 h; format: cell-based, mouse; parameters: effect when added before or simultaneously with dexamethasone: dose or concentration left out as unconfirmed
Protocol: Thymocytes were treated with 0.1 mM dexamethasone in vitro and analyzed after a total of 6 h incubation. The apoptosis inhibitor ZVAD(OMe)FMK was added at various times of incubation as indicated, and the caspase activities were assessed by flow cytometry. The results are expressed as ratios of mean fluorescence channel number comparing the activity in the presence of 50 mM ZVAD(OMe)FMK with the uninhibited sample for that substrate.
Single cell suspensions of thymocytes were cultured in RPMI 1640 with 10% FCS at a concentration of 10 6 cells/ml. Dexamethasone (final concentration, 0.1 mM) and ZVAD (OMe)FMK (final concentration, 50 mM) were added at the indicated times from stock solutions in DMSO (100 mM for dexamethasone and 200 mM for ZVAD[OMe]FMK). […] After washing in saline, cells were analyzed by flow cytometry. […] The fluorescence intensity was then monitored for 30-60 min. The initial velocity was calculated from the linear portion of the fluorescence increase. […]
The ability to detect intracellular caspase activities allowed us to study the pharmacological target of the potent apoptosis inhibitor ZVAD(OMe)FMK. […] Activity was assessed by the mean fluorescence channel number of PInegative cells. […] However, when addition of this inhibitor was delayed, the intracellular activity of all caspases detected rose, with no significant selective depletion of activity. […]

thymocytes = settings: in vitro; cited from earlier work
[1] = intravenously injected antiFas; ischemia-reperfusion stroke model; cited from earlier work
elastase [2] = assay: Elastase digestion of fluorogenic protease indicator, HPLC of cleavage products; format: biochemical; settings: 1 unit of elastase, about 30 minutes, 37° C., pH 8.9
Protocol: Approximately 1 microgram of protease indicator, having the formula F^1-Asp-Ala-Ile-Pro-Nle-Ser-Ile-Pro-Cys-F^2 (SEQ ID No: 184) where F^1 is a donor fluorophore (5′-carboxytetramethylrhodamine (5-TMR)) linked to aspartic acid via the alpha amino group and F^2 is an acceptor fluorophore (rhodamine X acetamide (R492)) linked via the sulfhydryl group of the cysteine was dissolved in a buffer consisting of 50 mM sodium phosphate, 1 mM EDTA at pH 8.9. To this solution was added 1 unit of elastase. The solution was analyzed by HPLC before and about 30 minutes after the addition of elastase. The digestion was carried out at 37° C. The HPLC separated components were monitored at a wavelength of 550 nm which allowed detection of both the 5-TMR fluorophore the R492 fluorophore and at 580 nm which allowed detection of the R492 fluorophore.
In addition, the two predominant peaks in FIGS. 1(b) and 1(c) indicate that the digestion occurred primarily at a single site.

elastase [3] = assay: Emission spectrum change of indicator after addition of elastase (spectrofluorometer); format: biochemical; settings: 37° C., slit widths 4 nm
Protocol: Changes in the emission spectrum of the fluorogenic protease indicator after the addition of an elastase protease was monitored using an SLM spectrofluorometer model 48000 with slit widths set at 4 nm on both the excitation and emission sides. All measurements were carried out at 37° C.
Spectra in FIG. 2 show emission of the fluorogenic protease indicator (a) before and (b) after addition of elastase, while the time dependent increase of the indicator's donor fluorophore emission intensity, after addition of elastase, is plotted in FIG. 3. […] The changes in intensity between treated and untreated indicators are, to some degree, a function of slit widths used, since they represent the signal integrated across the particular slit width. Thus, if wider slit widths were used (e.g. 8 or 16 nm slits) an even greater signal would be provided in response to digestion.

[4] = tested on: Jurkat cells, HL-60 cells, human lymphocyte lines, A1.1 cells, murine primary thymocytes; assay: Cellular uptake of substrates by fluorescence microscopy, flow cytometry, HPLC; format: cell-based; settings: viable cells
Protocol: The compounds listed in Table 6 were synthesized and assayed for cellular uptake. Cellular internalization of the substrates was tested using Jurkat cells (a human acute T cell leukemic line), HL-60 cells (a human promyelocytic leukemic line), human lymphocyte lines, A1.1 cells (a murine T-cell line), and murine primary thymocytes. Procedures used in determining substrate uptake by viable cells are provided in Example 6 (for the HPLC procedures), in Example 2 (for the fluorescence microscopic analysis), and in Example 3 (for the flow cytometric analysis) a summary of these analyses with respect to cellular uptake of substrates is presented in this example.
The elastase substrate, Fm—K[F1]DAIPNluSIPK[F1]GY (SEQ ID NO:185), (where F1 was carboxytetramethylrhodamine, Fm was Fmoc, K[F1] was F1 covalently attached through the epsilon amino group of lysine (K), and Fm—K is the Fmoc group covalently attached at the alpha amino group of the amino terminal lysine residue) was used with HL-60 cells. Cells were incubated with various concentrations of elastase substrate ranging from 10 nM to 10 μM for 5 minutes to 60 minutes. Then the cells were diluted 5-fold with RPMI 1640 medium containing 5% serum or with phosphate buffered saline. The samples were centrifuged and washed once more with 1 ml of washing solution. After centrifugation and removal of the washing solution, cell pellets were loosened with about 25 ul of medium and these cells were transferred to a glass capillary. Capillary tubes were then placed on a glass microscope slide and examined under a fluorescence microscope using standard rhodamine filters.
For apoptosis-related protease activity determination, 10 μM concentration of the compounds listed in Example 8 (compound structures 2 through 13) were incubated with cells for 30 min. to 3 hours. The cells were then washed similarly twice. Using glass capillary tubes, the washed cells were transferred and examined under a fluorescence microscope.
(§1) The concentration of substrates used in flow cytometric analysis was 10 M in RPMI1640 medium containing 4 to 10% fetal calf serum. Cell densities during incubation with the chosen substrates ranged from 50,000 cells per ml to 4,000,000 per ml. Incubation times were from 30 min. to 3 hours at 37° C. and incubation volumes were 50 μL to 2 ml. After incubation with substrate for 30 to 60 min. cell suspensions were diluted 10-fold with ice cold Hank's Buffered Saline Solution (HBSS). This filtered cell suspension was then subjected to flow cytometric analysis using a 488 nm excitation source. Becton Dickenson, Inc.'s flow cytometer, FacSort, was used in the flow cytometric analysis. Typically, 10,000 to 30,000 events per sample were collected.

CPP32 protease = biological target: T1, CPP32 protease (Homo sapiens, UniProt P42574); assay: Flow cytometric analysis of intracellular CPP32 protease activity in anti-Fas activated Jurkat cells; format: cell-based
T1 construct: served as a direct measure of the intracellular CPP32 protease activity; endogenous in cells
T1 sequence (P42574 29-277): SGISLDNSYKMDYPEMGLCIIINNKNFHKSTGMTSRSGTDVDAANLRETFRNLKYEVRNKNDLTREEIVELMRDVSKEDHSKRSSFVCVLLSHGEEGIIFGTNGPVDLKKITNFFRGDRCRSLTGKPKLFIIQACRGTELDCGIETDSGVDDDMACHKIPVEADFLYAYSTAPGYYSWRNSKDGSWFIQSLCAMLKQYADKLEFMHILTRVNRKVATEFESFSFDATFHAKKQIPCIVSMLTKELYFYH
Protocol: as §1, with “Typically, 10,000 to 30,000 events per sample were collected.” left out
Control cells without substrate incubation and the sample with the greatest expected fluorescence signals were used to set the instrument detector parameters. For example after 15 minutes incubation of Jurkat cells with substrate compound #11 Fm-CGD2D: Fm—K[F1]DBJGDEVDGIDGJPK[F1]GY (SEQ ID NO: 202, where F1 was carboxytetramethylrhodamine; Fm was Fmoc, K[F1] was F1 covalently attached through the epsilon amino group of lysine (K), Nlu was norleucine, B was aminoisobutyric acid, and J was epsilon-aminocaproic acid) an increase of about 10 channels indicating cellular uptake of the substrates was measured. […] As much as a ten-fold increase in fluorescence intensity was observed. […]

Molecule: COC(=O)C[C@H](NC(=O)[C@H](C)NC(=O)[C@@H](NC(=O)OCc1ccccc1)C(C)C)C(=O)CF [ZVAD(OMe)FMK, carbobenzoxyvalylalanylaspartyl(bmethyl ester)fluoromethyl ketone] (Cbz-Val-Ala-Asp(OMe)-CH2F)
effect of pretreatment followed by washing before dexamethasone addition (intracellular caspases): minimal inhibition | effect when added before or simultaneously with dexamethasone (intracellular caspases): blocks apoptosis | block of dexamethasone-induced thymocyte apoptosis (thymocytes): specifically blocks | protection of mice [1]: protect mice from the lethal effects

degree of cleavage by elastase (HPLC) (elastase [2]): complete digestion | increase in fluorescence at 589 nm after treatment with elastase (elastase [3]): > 10 fold | increase in fluorescence within the first 1000 seconds of exposure to the protease (elastase [3]): > 5 fold
Molecule: F^1-Asp-Ala-Ile-Pro-Nle-Ser-Ile-Pro-Cys-F^2 (DAIP[Nle]SIPC-{F^2}; not fully specified (residue 9, N-terminus); printed as F1-Asp-Ala-Ile-Pro-Nle-Ser-Ile-Pro-Cys-F2; reading uncertain) [D-NorFES-A, F1 5'-carboxytetramethylrhodamine donor, F2 rhodamine X acetamide acceptor]

Molecule: Fm-K[F1]DBJGDEVDGIDGJPK[F1]GY (K(F1)D[code B][code J]GDEVDGIDG[code J]PK(F1)GY; not fully specified (N-terminus); printed as Fm-K[F1]DBJGDEVDGIDGJPK[F1]GY; reading uncertain) [Compound 11]
cellular uptake (Table 6) [4]: efficient cellular uptake | increase in fluorescence intensity in activated cells (CPP32 protease; 1 μg/ml anti-Fas antibody CH11 for 1 to 6 hours): ten-fold | increase in channels indicating cellular uptake (CPP32 protease; 15 minutes incubation): about 10 channels
